Experimental data reported in PubChem BioAssay AID1259407 (Chemical Carcinogenesis Research Information System (CCRIS), 2018).
Active and inactive are the calls of the source. No rule for the calls is given here.

System: CCRIS mutagenicity, Ames/micronucleus/aberration tests
Test: CCRIS mutagenicity studies
[1] = Test System: AMES SALMONELLA TYPHIMURIUM, Strain/Indicator: TA98, Metabolic Activation: NONE, Method: PREINCUBATION
[2] = Test System: AMES SALMONELLA TYPHIMURIUM, Strain/Indicator: TA100, Metabolic Activation: NONE, Method: PREINCUBATION
[3] = Test System: AMES SALMONELLA TYPHIMURIUM, Strain/Indicator: TA1535, Metabolic Activation: NONE, Method: PREINCUBATION
[4] = Test System: AMES SALMONELLA TYPHIMURIUM, Strain/Indicator: TA1537, Metabolic Activation: NONE, Method: PREINCUBATION

For ClCCOCCCl, the mutagenic call (End Point: IN VITRO CHROMOSOMAL ABERRATIONS, Test System: CHO CELLS, Metabolic Activation: NONE) was “inactive; negative”, the mutagenic call (End Point: IN VITRO CHROMOSOMAL ABERRATIONS, Test System: CHO CELLS, Metabolic Activation: RAT, LIVER, S-9, AROCLOR 1254) was “inactive; negative” and the mutagenic call (Test System: AMES SALMONELLA TYPHIMURIUM, Strain/Indicator: TA98, Metabolic Activation: HAMSTER, LIVER, S-9, PHENOBARBITAL AND BETA-NAPHTHOFLAVONE, Method: PREINCUBATION) was “inactive; negative”. The mutagenic call [1] was “inactive; negative”, the mutagenic call (Test System: AMES SALMONELLA TYPHIMURIUM, Strain/Indicator: TA98, Metabolic Activation: RAT, LIVER, S-9, PHENOBARBITAL AND BETA-NAPHTHOFLAVONE, Method: PREINCUBATION) was “inactive; negative” and the mutagenic call (Test System: AMES SALMONELLA TYPHIMURIUM, Strain/Indicator: TA100, Metabolic Activation: HAMSTER, LIVER, S-9, PHENOBARBITAL AND BETA-NAPHTHOFLAVONE, Method: PREINCUBATION) was “inactive; negative”. The mutagenic call (Test System: AMES SALMONELLA TYPHIMURIUM, Strain/Indicator: TA100, Metabolic Activation: NONE, Method: DESICCATOR) was “active; positive”, the mutagenic call [2] was “inactive; negative” and the mutagenic call (Test System: AMES SALMONELLA TYPHIMURIUM, Strain/Indicator: TA100, Metabolic Activation: RAT, LIVER, S-9, PHENOBARBITAL AND BETA-NAPHTHOFLAVONE, Method: PREINCUBATION) was “inactive; negative”. For the same compound, the mutagenic call [3] was “active; positive”, the mutagenic call (Test System: AMES SALMONELLA TYPHIMURIUM, Strain/Indicator: TA1537, Metabolic Activation: HAMSTER, LIVER, S-9, PHENOBARBITAL AND BETA-NAPHTHOFLAVONE, Method: PREINCUBATION) was “inactive; negative” and the mutagenic call [4] was “inactive; negative”. For the same compound, the mutagenic call (Test System: AMES SALMONELLA TYPHIMURIUM, Strain/Indicator: TA1537, Metabolic Activation: RAT, LIVER, S-9, PHENOBARBITAL AND BETA-NAPHTHOFLAVONE, Method: PREINCUBATION) was “inactive; negative”, the mutagenic call (Test System: E. COLI, Strain/Indicator: WP2UVRA, Metabolic Activation: NONE, Method: PREINCUBATION) was “inactive; negative” and the mutagenic call (Test System: E. COLI, Strain/Indicator: WP2UVRA, Metabolic Activation: RAT, LIVER, S-9, PHENOBARBITAL AND BETA-NAPHTHOFLAVONE, Method: PREINCUBATION) was “inactive; negative”.

In the case of c1cc2ccc3cc4occc4c4ccc(c1)c2c34, the mutagenic call (Test System: AMES SALMONELLA TYPHIMURIUM, Strain/Indicator: TA98, Metabolic Activation: NONE, Method: STANDARD PLATE) is reported as “inactive; negative” and the mutagenic call (Test System: AMES SALMONELLA TYPHIMURIUM, Strain/Indicator: TA98, Metabolic Activation: RAT, LIVER, S-9, AROCLOR 1254, Method: STANDARD PLATE) is reported as “active; positive”.

In the case of CCCCCCCCCC(=O)O, the mutagenic call (Test System: AMES SALMONELLA TYPHIMURIUM, Strain/Indicator: TA97, Metabolic Activation: HAMSTER, LIVER, S-9, AROCLOR 1254 (10 OR 30%), Method: PREINCUBATION) is reported as “inactive; negative”, the mutagenic call (Test System: AMES SALMONELLA TYPHIMURIUM, Strain/Indicator: TA97, Metabolic Activation: NONE, Method: PREINCUBATION) is reported as “inactive; negative” and the mutagenic call (Test System: AMES SALMONELLA TYPHIMURIUM, Strain/Indicator: TA97, Metabolic Activation: RAT, LIVER, S-9, AROCLOR 1254 (10 OR 30%), Method: PREINCUBATION) is reported as “inactive; negative”. The mutagenic call (Test System: AMES SALMONELLA TYPHIMURIUM, Strain/Indicator: TA98, Metabolic Activation: HAMSTER, LIVER, S-9, AROCLOR 1254 (10 OR 30%), Method: PREINCUBATION) was “inactive; negative”, the mutagenic call [1] was “inactive; negative” and the mutagenic call (Test System: AMES SALMONELLA TYPHIMURIUM, Strain/Indicator: TA98, Metabolic Activation: RAT, LIVER, S-9, AROCLOR 1254 (10 OR 30%), Method: PREINCUBATION) was “inactive; negative”. The mutagenic call (Test System: AMES SALMONELLA TYPHIMURIUM, Strain/Indicator: TA100, Metabolic Activation: HAMSTER, LIVER, S-9, AROCLOR 1254 (10 OR 30%), Method: PREINCUBATION) was “inactive; negative”, the mutagenic call [2] was “inactive; negative” and the mutagenic call (Test System: AMES SALMONELLA TYPHIMURIUM, Strain/Indicator: TA100, Metabolic Activation: RAT, LIVER, S-9, AROCLOR 1254 (10 OR 30%), Method: PREINCUBATION) was “inactive; negative”. The mutagenic call (Test System: AMES SALMONELLA TYPHIMURIUM, Strain/Indicator: TA1535, Metabolic Activation: HAMSTER, LIVER, S-9, AROCLOR 1254 (10 OR 30%), Method: PREINCUBATION) was “inactive; negative”, the mutagenic call [3] was “inactive; negative” and the mutagenic call (Test System: AMES SALMONELLA TYPHIMURIUM, Strain/Indicator: TA1535, Metabolic Activation: RAT, LIVER, S-9, AROCLOR 1254 (10 OR 30%), Method: PREINCUBATION) was “inactive; negative”. For the same compound, the mutagenic call (Test System: AMES SALMONELLA TYPHIMURIUM, Strain/Indicator: TA1537, Metabolic Activation: HAMSTER, LIVER, S-9, AROCLOR 1254 (10 OR 30%), Method: PREINCUBATION) was “inactive; negative”, the mutagenic call [4] was “inactive; negative” and the mutagenic call (Test System: AMES SALMONELLA TYPHIMURIUM, Strain/Indicator: TA1537, Metabolic Activation: RAT, LIVER, S-9, AROCLOR 1254 (10 OR 30%), Method: PREINCUBATION) was “inactive; negative”.

With Cc1ccc2cc([N+](=O)[O-])ccc2c1 the mutagenic call [1] was “active; positive”.

In the case of c1ccc2c(c1)ccc1c3ccccc3sc21, the mutagenic call (Test System: AMES SALMONELLA TYPHIMURIUM, Strain/Indicator: TA100, Metabolic Activation: RAT, LIVER, S-9, AROCLOR 1254, Method: PREINCUBATION) is reported as “active; positive”.

With CCCCCCC(C)COC(=O)c1ccccc1C(=O)OCC(C)CCCCCC (stereo not drawn) the mutagenic call (Test System: AMES SALMONELLA TYPHIMURIUM, Strain/Indicator: TA98, Metabolic Activation: HAMSTER, LIVER, S-9, AROCLOR 1254 (10%), Method: PREINCUBATION) was “inactive; negative”, the mutagenic call [1] was “inactive; negative” and the mutagenic call (Test System: AMES SALMONELLA TYPHIMURIUM, Strain/Indicator: TA98, Metabolic Activation: RAT LIVER S-9, AROCLOR, Method: PREINCUBATION) was “inactive; negative”. The mutagenic call (Test System: AMES SALMONELLA TYPHIMURIUM, Strain/Indicator: TA98, Metabolic Activation: RAT, LIVER, S-9, AROCLOR 1254 (10%), Method: PREINCUBATION) was “inactive; negative”, the mutagenic call (Test System: AMES SALMONELLA TYPHIMURIUM, Strain/Indicator: TA100, Metabolic Activation: HAMSTER, LIVER, S-9, AROCLOR 1254 (10%), Method: PREINCUBATION) was “inactive; negative” and the mutagenic call [2] was “inactive; negative”. The mutagenic call (Test System: AMES SALMONELLA TYPHIMURIUM, Strain/Indicator: TA100, Metabolic Activation: RAT LIVER S-9, AROCLOR, Method: PREINCUBATION) was “inactive; negative”, the mutagenic call (Test System: AMES SALMONELLA TYPHIMURIUM, Strain/Indicator: TA100, Metabolic Activation: RAT, LIVER, S-9, AROCLOR 1254 (10%), Method: PREINCUBATION) was “inactive; negative” and the mutagenic call (Test System: AMES SALMONELLA TYPHIMURIUM, Strain/Indicator: TA1535, Metabolic Activation: HAMSTER, LIVER, S-9, AROCLOR 1254 (10%), Method: PREINCUBATION) was “inactive; negative”. For the same compound, the mutagenic call [3] was “inactive; negative”, the mutagenic call (Test System: AMES SALMONELLA TYPHIMURIUM, Strain/Indicator: TA1535, Metabolic Activation: RAT LIVER S-9, AROCLOR, Method: PREINCUBATION) was “inactive; negative” and the mutagenic call (Test System: AMES SALMONELLA TYPHIMURIUM, Strain/Indicator: TA1535, Metabolic Activation: RAT, LIVER, S-9, AROCLOR 1254 (10%), Method: PREINCUBATION) was “inactive; negative”. For the same compound, the mutagenic call (Test System: AMES SALMONELLA TYPHIMURIUM, Strain/Indicator: TA1537, Metabolic Activation: HAMSTER, LIVER, S-9, AROCLOR 1254 (10%), Method: PREINCUBATION) was “inactive; negative”, the mutagenic call [4] was “inactive; negative” and the mutagenic call (Test System: AMES SALMONELLA TYPHIMURIUM, Strain/Indicator: TA1537, Metabolic Activation: RAT LIVER S-9, AROCLOR, Method: PREINCUBATION) was “inactive; negative”. For the same compound, the mutagenic call (Test System: AMES SALMONELLA TYPHIMURIUM, Strain/Indicator: TA1537, Metabolic Activation: RAT, LIVER, S-9, AROCLOR 1254 (10%), Method: PREINCUBATION) was “inactive; negative”, the mutagenic call (Test System: MOUSE LYMPHOMA, Strain/Indicator: L5178Y (TK+/TK-), Metabolic Activation: NONE, Method: SUSPENSION/PLATE) was “inactive; negative” and the mutagenic call (Test System: MOUSE LYMPHOMA, Strain/Indicator: L5178Y (TK+/TK-), Metabolic Activation: RAT LIVER S-9, Method: SUSPENSION/PLATE) was “inactive; negative”.

CCC(C(C)O)[N+](=O)[O-] (stereo not drawn) was tested, and the mutagenic call [1] was “inactive; negative”, the mutagenic call (Test System: AMES SALMONELLA TYPHIMURIUM, Strain/Indicator: TA98, Metabolic Activation: RAT, LIVER, S-9, AROCLOR, Method: PREINCUBATION) was “inactive; negative” and the mutagenic call [2] was “inactive; negative”. The mutagenic call (Test System: AMES SALMONELLA TYPHIMURIUM, Strain/Indicator: TA100, Metabolic Activation: RAT, LIVER, S-9, AROCLOR, Method: PREINCUBATION) was “inactive; negative”, the mutagenic call (Test System: AMES SALMONELLA TYPHIMURIUM, Strain/Indicator: TA102, Metabolic Activation: NONE, Method: PREINCUBATION) was “inactive; negative” and the mutagenic call (Test System: AMES SALMONELLA TYPHIMURIUM, Strain/Indicator: TA102, Metabolic Activation: RAT, LIVER, S-9, AROCLOR, Method: PREINCUBATION) was “inactive; negative”.
